One molecule from patent US8969331B2, “Treatment of skin and mucosal superficial wounds using adrenergic receptor agonists” (priority 2008, dated 2015) can be followed below.

The experiment has as its system small cuts and/or abrasions. Briefly: topical application of epinephrine compositions to small cuts and/or abrasions. In kind it is in vivo. Particulars: compositions containing from about 0.001 mg/ml to about 2.5 mg/ml, applied topically.
Setting [1] is: compared with wounds untreated or treated with conventional methods.

Consider `CNC[C@H](O)c1ccc(O)c(O)c1` [epinephrine], for which the “scab formation on treated skin areas” value (assessed visually) was “no scabs were formed visually”. Besides, under setting [1], the control of bleeding result is “faster control of bleeding” and the “healing of small cuts and/or abrasions” value was “promoted healing of small cuts and/or abrasions”.
